From BigSolDB 2.1

O=C(O)/C=C\C=C/C(=O)O
solubility (mole fraction)
Conditions	in acetic acid	in ethanol	in isopropanol	in water
298.15 K	0.0029	0.0117	0.0101	0.0002
303.15 K	0.0034	0.0139	0.0107	0.0004
308.15 K	0.0039	0.016	0.0124	0.0006
313.15 K	0.0044	0.0184	0.0139	0.0008
318.15 K	0.0052	0.0236	0.0156	0.0014
323.15 K	0.0057	0.0293	0.017	0.0021
328.15 K	0.0065	0.037	0.0204	0.0031
333.15 K	0.0076	0.0478	0.0244	0.005
338.15 K	0.0086	0.0595	0.0274	0.0068
343.15 K	0.01	0.0715	0.0297	0.0106
348.15 K	0.0125	0.0847	0.0342	0.0153
